# Calls of active or inactive are those of the source. The rule behind the calls is not given here.
# Legend:
# [1] = Cytotoxicity against human HEK-Blue hNOD2 cells assessed as metabolic activity at 10 uM incubated for 18 hes by MTT assay; format: toxicity, cell-based; details: hek-blue hnod2, 10 µM
# PBMC [2] = assay: Immunomodulatory activity in human PBMC cells assessed as increase in MCP-1 level at 2 uM incubated for 18 hrs y flow cytometry analysis; format: functional, cell-based
# In short: (§1)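 For 18 h at 37 °C, 5% CO2, human donor PBMCs at 1 × 10^6 cells/mL were incubated without LPS in the presence of 2 μM compound or 0.1% DMSO vehicle. Cytokines were then quantified in cell-free supernatants by flow cytometry with a LEGENDplex human immune response panel, using the kit's recombinant standards. Four independent replicates were analysed by two-way ANOVA and Tukey's test.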
# [3] = Cytotoxicity against human PBMC cells at 10 uM incubated for 4 hrs; format: toxicity, cell-based
# In short: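 Direct cytotoxicity toward human PBMCs alone was taken as the Sytox blue-positive cell population, measured by flow cytometry on an Attune NxT with FlowJo analysis. Compound exposure was at 10 μM with 0.1% DMSO vehicle, in parallel with a K562 killing assay. Data came from duplicates in three independent biological replicates, compared by one-way ANOVA with Dunnett's test.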
# PBMC [4] = assay: Immunomodulatory activity in human PBMC cells assessed as increase in IL-2 level at 2 uM incubated for 18 hrs y flow cytometry analysis; format: functional, cell-based; in short: as §1
# PBMC [5] = assay: Immunomodulatory activity in human PBMC cells assessed as increase in IL-17A level at 2 uM incubated for 18 hrs y flow cytometry analysis; format: functional, cell-based; in short: as §1
# PBMC [6] = assay: Immunomodulatory activity in human PBMC cells assessed as increase in IL-8 level at 2 uM incubated for 18 hrs y flow cytometry analysis; format: functional, cell-based; in short: as §1
# PBMC [7] = assay: Cytotoxicity against human PBMC cells co-cultured with human K562 cells at 10 uM incubated for 4 hrs; format: functional, cell-based
# In short: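 Human PBMCs (4 × 10^5/well, 96-well) were pretreated 18 h with compounds at 10 μM (vehicle 0.1% DMSO). CFSE-stained K562 cells (1 × 10^4/well; effector:target 40:1) were then added for 4 h at 37 °C, 5% CO2. Cells were stained with Sytox blue and analysed on an Attune NxT flow cytometer. Killing was read as CFSE+ Sytox blue+ K562 cells. Duplicates, three independent biological replicates; one-way ANOVA with Dunnett's test.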
# PBMC [8] = assay: Immunomodulatory activity in human PBMC cells assessed as increase in LPS-induced IFN-gamma level at 2 uM incubated for 18 hrs y flow cytometry analysis; format: functional, cell-based
# PBMC [9] = assay: Immunomodulatory activity in human PBMC cells assessed as increase in IP-10 level at 2 uM incubated for 18 hrs y flow cytometry analysis; format: functional, cell-based; in short: as §1
# PBMC [10] = assay: Immunomodulatory activity in human PBMC cells assessed as increase in LPS-induced MCP-1 level at 2 uM incubated for 18 hrs y flow cytometry analysis; format: functional, cell-based
# In short: (§2)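 Human donor PBMCs (Ficoll-Paque; 1 × 10^6 cells/mL, 500 μL, 48-well plates) were treated with compounds at 2 μM or 0.1% DMSO vehicle in the presence of LPS (10 ng/mL) for 18 h at 37 °C, 5% CO2. Cytokines in cell-free supernatants were quantified with the LEGENDplex Human Essential Immune Response Panel on a flow cytometer against kit recombinant standard curves. Four independent replicates; two-way ANOVA with Tukey's test.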
# PBMC [11] = assay: Immunomodulatory activity in human PBMC cells assessed as increase in IL-12p70 level at 2 uM incubated for 18 hrs y flow cytometry analysis; format: functional, cell-based; in short: as §1
# PBMC [12] = assay: Immunomodulatory activity in human PBMC cells assessed as increase in IL-4 level at 2 uM incubated for 18 hrs y flow cytometry analysis; format: functional, cell-based; in short: as §1
# PBMC [13] = assay: Immunomodulatory activity in human PBMC cells assessed as increase in IL-6 level at 2 uM incubated for 18 hrs y flow cytometry analysis; format: functional, cell-based; in short: as §1
# PBMC [14] = assay: Immunomodulatory activity in human PBMC cells assessed as increase in LPS-induced IL-1beta level at 2 uM incubated for 18 hrs y flow cytometry analysis; format: functional, cell-based
# PBMC [15] = assay: Immunomodulatory activity in human PBMC cells assessed as increase in IFN-gamma level at 2 uM incubated for 18 hrs y flow cytometry analysis; format: functional, cell-based; in short: as §1
# PBMC [16] = assay: Immunomodulatory activity in human PBMC cells assessed as increase in IL-1beta level at 2 uM incubated for 18 hrs y flow cytometry analysis; format: functional, cell-based; in short: as §1
# PBMC [17] = assay: Immunomodulatory activity in human PBMC cells assessed as increase in IL-10 level at 2 uM incubated for 18 hrs y flow cytometry analysis; format: functional, cell-based; in short: as §1
# PBMC [18] = assay: Immunomodulatory activity in human PBMC cells assessed as increase in LPS-induced IL-6 level at 2 uM incubated for 18 hrs y flow cytometry analysis; format: functional, cell-based; in short: as §2
# PBMC [19] = assay: Immunomodulatory activity in human PBMC cells assessed as increase in LPS-induced TNF-alpha level at 2 uM incubated for 18 hrs y flow cytometry analysis; format: functional, cell-based
# PBMC [20] = assay: Immunomodulatory activity in human PBMC cells assessed as increase in LPS-induced IL-12p70 level at 2 uM incubated for 18 hrs y flow cytometry analysis; format: functional, cell-based
# PBMC [21] = assay: Immunomodulatory activity in human PBMC cells assessed as increase in TGF-beta1 level at 2 uM incubated for 18 hrs y flow cytometry analysis; format: functional, cell-based; in short: as §1
# PBMC [22] = assay: Immunomodulatory activity in human PBMC cells assessed as increase in TNF-alpha level at 2 uM incubated for 18 hrs y flow cytometry analysis; format: functional, cell-based; in short: as §1
# PBMC [23] = assay: Immunomodulatory activity in human PBMC cells assessed as increase in LPS-induced IL-10 level at 2 uM incubated for 18 hrs y flow cytometry analysis; format: functional, cell-based; in short: as §2
# PBMC [24] = assay: Immunomodulatory activity in human PBMC cells assessed as increase in LPS-induced IP-10 level at 2 uM incubated for 18 hrs y flow cytometry analysis; format: functional, cell-based; in short: as §2
# [25] = Cytotoxicity against human PBMC cells at 10 uM incubated for 4 hrs in presence of MDP; format: toxicity, cell-based
smiles,measurement,setting,value
CCCCC/C=C\C/C=C\C/C=C\CCCCC(=O)Oc1ccc(/C=C/C(=O)NCC(=O)N[C@H](C(=O)N[C@H](CCC(=O)OCC)C(=O)OCC)C(C)C)cc1OC,Activity,[1],Non-toxic
CCCCCCCC(=O)Oc1ccc(/C=C/C(=O)NCC(=O)N[C@H](C(=O)N[C@H](CCC(=O)OCC)C(=O)OCC)C(C)C)cc1OC,Activity,[1],Non-toxic
CCCCCCCC/C=C\CCCCCCCC(=O)Oc1ccc(/C=C/C(=O)NCC(=O)N[C@H](C(=O)N[C@H](CCC(=O)OCC)C(=O)OCC)C(C)C)cc1OC,Activity,[1],Non-toxic
CCOC(=O)[C@@H](CCC(=O)OCCN1CCOCC1)NC(=O)[C@@H](NC(=O)CNC(=O)/C=C/c1ccc(O)c(OC)c1)C(C)C,Activity,[1],Non-toxic
CCCCCC(=O)Oc1ccc(/C=C/C(=O)NCC(=O)N[C@H](C(=O)N[C@H](CCC(=O)OCC)C(=O)OCC)C(C)C)cc1OC,Activity,[1],Non-toxic
CCOC(=O)CC[C@@H](NC(=O)[C@@H](NC(=O)CNC(=O)/C=C/c1ccc(OC(=O)CCCC2CCCCC2)c(OC)c1)C(C)C)C(=O)OCC,Activity,[1],Non-toxic
CC/C=C\C/C=C\C/C=C\C/C=C\C/C=C\C/C=C\CCC(=O)Oc1ccc(/C=C/C(=O)NCC(=O)N[C@H](C(=O)N[C@H](CCC(=O)OCC)C(=O)OCC)C(C)C)cc1OC,Activity,[1],Non-toxic
CCCCCCCCCCCCCCCCCC(=O)Oc1ccc(/C=C/C(=O)NCC(=O)N[C@H](C(=O)N[C@H](CCC(=O)OCC)C(=O)OCC)C(C)C)cc1OC,Activity,[1],Non-toxic
CCCCCC(CCCCC)C(=O)Oc1ccc(/C=C/C(=O)NCC(=O)N[C@H](C(=O)N[C@H](CCC(=O)OCC)C(=O)OCC)C(C)C)cc1OC,Activity,[1],Non-toxic
CCCCCCC(CC)C(=O)Oc1ccc(/C=C/C(=O)NCC(=O)N[C@H](C(=O)N[C@H](CCC(=O)OCC)C(=O)OCC)C(C)C)cc1OC (stereo partly specified),Activity,[1],Non-toxic
CCOC(=O)CC[C@@H](NC(=O)[C@@H](NC(=O)CNC(=O)/C=C/c1ccc(OC(=O)CCCCCCCCCCCCCO)c(OC)c1)C(C)C)C(=O)OCC,Activity,[1],Non-toxic
CCCCCCCCCCCC(=O)Oc1ccc(/C=C/C(=O)NCC(=O)N[C@H](C(=O)N[C@H](CCC(=O)OCC)C(=O)OCC)C(C)C)cc1OC,Activity,PBMC [2],Active
same,Activity,[3],Non-toxic
same,Activity,PBMC [4],Active
same,Activity,PBMC [5],Active
same,Activity,PBMC [6],Active
same,Activity,PBMC [7],inactive
same,Activity,PBMC [8],Active
same,Activity,PBMC [9],Active
same,Activity,PBMC [10],Active
same,Activity,PBMC [11],Active
same,Activity,PBMC [12],Active
same,Activity,PBMC [13],Active
same,Activity,PBMC [14],Active
same,Activity,PBMC [15],Active
same,Activity,PBMC [16],Active
same,Activity,PBMC [17],Active
same,Activity,PBMC [18],Active
same,Activity,PBMC [19],Active
same,Activity,PBMC [20],Active
same,Activity,PBMC [21],Active
same,Activity,PBMC [22],Active
same,Activity,PBMC [23],Active
same,Activity,PBMC [24],Active
CCCCCCCCCC(=O)Oc1ccc(/C=C/C(=O)NCC(=O)N[C@H](C(=O)N[C@H](CCC(=O)OCC)C(=O)OCC)C(C)C)cc1OC,Activity,[1],Non-toxic
CCOC(=O)[C@@H](CCC(=O)NCCCNCCCCN)NC(=O)[C@@H](NC(=O)CNC(=O)/C=C/c1ccc(O)c(OC)c1)C(C)C,Activity,[1],Non-toxic
CCCCCC(C)C(=O)Oc1ccc(/C=C/C(=O)NCC(=O)N[C@H](C(=O)N[C@H](CCC(=O)OCC)C(=O)OCC)C(C)C)cc1OC (stereo partly specified),Activity,[1],Non-toxic
CCOC(=O)[C@@H](CCC(=O)NCCCCN)NC(=O)[C@@H](NC(=O)CNC(=O)/C=C/c1ccc(O)c(OC)c1)C(C)C,Activity,[1],Non-toxic
CCCCCC(CCC)C(=O)Oc1ccc(/C=C/C(=O)NCC(=O)N[C@H](C(=O)N[C@H](CCC(=O)OCC)C(=O)OCC)C(C)C)cc1OC (stereo partly specified),Activity,[1],Non-toxic
CCCCC(CCCC)C(=O)Oc1ccc(/C=C/C(=O)NCC(=O)N[C@H](C(=O)N[C@H](CCC(=O)OCC)C(=O)OCC)C(C)C)cc1OC,Activity,[1],Non-toxic
CCOC(=O)CC[C@@H](NC(=O)[C@@H](NC(=O)CNC(=O)/C=C/c1cc(OC)c(O)c(OC)c1)C(C)C)C(=O)OCC,Activity,[1],Non-toxic
CC/C=C\C/C=C\C/C=C\CCCCCCCC(=O)Oc1ccc(/C=C/C(=O)NCC(=O)N[C@H](C(=O)N[C@H](CCC(=O)OCC)C(=O)OCC)C(C)C)cc1OC,Activity,[1],Non-toxic
CCCCCCCCCCCCCC(=O)Oc1ccc(/C=C/C(=O)NCC(=O)N[C@H](C(=O)N[C@H](CCC(=O)OCC)C(=O)OCC)C(C)C)cc1OC,Activity,[1],Non-toxic
CCCCC/C=C\C/C=C\CCCCCCCC(=O)Oc1ccc(/C=C/C(=O)NCC(=O)N[C@H](C(=O)N[C@H](CCC(=O)OCC)C(=O)OCC)C(C)C)cc1OC,Activity,[1],Non-toxic
CCCCCCCCCCCCCCCC(=O)Oc1ccc(/C=C/C(=O)NCC(=O)N[C@H](C(=O)N[C@H](CCC(=O)OCC)C(=O)OCC)C(C)C)cc1OC,Activity,[1],Non-toxic
CCCCC(CC)C(=O)Oc1ccc(/C=C/C(=O)NCC(=O)N[C@H](C(=O)N[C@H](CCC(=O)OCC)C(=O)OCC)C(C)C)cc1OC (stereo partly specified),Activity,[1],Non-toxic
CCOC(=O)[C@@H](CCC(=O)NCCCNCCCCNCCCN)NC(=O)[C@@H](NC(=O)CNC(=O)/C=C/c1ccc(O)c(OC)c1)C(C)C,Activity,PBMC [2],Active
same,Activity,[3],Non-toxic
same,Activity,PBMC [4],Active
same,Activity,PBMC [5],Active
same,Activity,PBMC [6],Active
same,Activity,PBMC [7],inactive
same,Activity,PBMC [8],Active
same,Activity,PBMC [9],Active
same,Activity,PBMC [10],Active
same,Activity,PBMC [11],Active
same,Activity,PBMC [12],Active
same,Activity,PBMC [13],Active
same,Activity,PBMC [14],Active
same,Activity,PBMC [15],Active
same,Activity,PBMC [16],Active
same,Activity,PBMC [17],Active
same,Activity,PBMC [18],Active
same,Activity,PBMC [19],Active
same,Activity,PBMC [20],Active
same,Activity,PBMC [21],Active
same,Activity,[1],Non-toxic
same,Activity,PBMC [22],Active
same,Activity,PBMC [23],Active
same,Activity,PBMC [24],Active
same,Activity,[25],Non-toxic
